Experimental findings from ChEMBL document CHEMBL1777682, “NMR evaluation of interactions between substituted-indole and PDZ1 domain of PSD-95” (Bioorg Med Chem Lett, 2011) are described below.

Structures are written as SMILES. The source made the active and inactive calls. The calls are words filed in the database; no cut-off is given here.

Disks large homolog 4 (Homo sapiens), sequence (P78352 whole entry, looked up, the tested form may be a part): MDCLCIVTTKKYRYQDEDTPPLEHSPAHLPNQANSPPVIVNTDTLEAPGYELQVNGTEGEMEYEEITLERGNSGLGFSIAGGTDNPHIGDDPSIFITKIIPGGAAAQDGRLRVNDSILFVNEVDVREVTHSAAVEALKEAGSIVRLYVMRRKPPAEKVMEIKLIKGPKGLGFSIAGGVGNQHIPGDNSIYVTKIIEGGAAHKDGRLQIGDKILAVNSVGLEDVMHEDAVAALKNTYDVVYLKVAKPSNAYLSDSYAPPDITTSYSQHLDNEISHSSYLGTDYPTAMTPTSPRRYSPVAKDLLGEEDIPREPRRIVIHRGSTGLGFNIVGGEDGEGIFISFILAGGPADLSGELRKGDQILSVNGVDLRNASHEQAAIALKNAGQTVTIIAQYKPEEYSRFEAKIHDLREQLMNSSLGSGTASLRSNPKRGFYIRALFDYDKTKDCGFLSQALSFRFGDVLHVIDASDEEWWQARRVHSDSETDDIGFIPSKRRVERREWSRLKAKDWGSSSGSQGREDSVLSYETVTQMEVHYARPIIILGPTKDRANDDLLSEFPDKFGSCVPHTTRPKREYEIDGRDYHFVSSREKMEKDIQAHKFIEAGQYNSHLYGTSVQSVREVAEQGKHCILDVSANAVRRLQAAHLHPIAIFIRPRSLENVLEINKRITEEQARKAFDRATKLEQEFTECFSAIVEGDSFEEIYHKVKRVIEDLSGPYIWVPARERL

The test addresses Disks large homolog 4 (Homo sapiens) (UniProt P78352). The test can be described thus: Binding affinity to recombinant 15N-labelled PSD95-PDZ1 domain expressed in Escherichia coli BL21 assessed as chemical shift perturbation by NMR spectra analysis.
For the compound `Cc1cc2cc(C(=O)O)[nH]c2cc1C(=O)O`, the outcome was inactive.

Turning to `Cc1cc2c(C)c(C(=O)O)[nH]c2cc1C(=O)O`, the result was Active.

With `Cc1cc2[nH]c(C(=O)O)c(C)c2cc1C(=O)O`, the result was Active.

With `Cc1c(C(=O)O)[nH]c2ccc(C(=O)O)cc12`, the result was Active.

Consider `COC(=O)c1cc2c(C)c(C(=O)O)[nH]c2cc1C`, for which the result was inactive.

With `CCOC(=O)c1ccc2[nH]c(C(=O)O)c(C)c2c1`, the outcome was inactive.

With `Cc1cc2c(C)c(C(=O)O)n(C)c2cc1C(=O)O`, the outcome was inactive.

`COC(=O)c1cc2[nH]c(C(=O)O)c(C)c2cc1C`: the outcome was inactive.
